From patent US8940863B2, “Selective anticancer chimeric peptides which bind neuropilin receptor” (Stella Pharma Corporation, priority 2008, dated 2015)
No end group written: not given here.

Legend:
[1] = system: human recombinant IL13R protein; assay: BIACORE binding to IL13R
[2] = target: human recombinant NRP1 protein (Homo sapiens, UniProt O14786); assay: BIACORE binding to NRP1
Protocol: Based on the results of binding three-dimensional structure analysis of NRP1 and a Sema3A, a ligand thereof, partial peptide sequence which is important for binding (NYQWVPYQGRVPYPR (SEQ ID NO: 29)) was designed and chemically synthesized. By BIACORE analysis, binding affinity with human recombinant NRP1 protein was assessed.

H322 = details: 72 hours
DU145 = assay: Cell viability assay (WST-8); type: cell-based, human; details: 72 hours
U251 [3] = system: U251
HN-12 = assay: Cell viability assay (WST-8); type: cell-based, human; details: 72 hours
U251 [4] = assay: Short-exposure killing of cancer cells (WST-8); type: cell-based, human; details: 10 μM
HEK293T = type: cell-based; details: 72 h
[5] = system: PE cell (pancreatic epidermal); assay: Cell viability assay (WST-8); type: cell-based; details: PE normal cells; 72 hours; Mean ± SD (Table 4); read-out: IC50
Description: Correlation between IC50 values was observed.

KCCT873 = assay: Cell viability assay (WST-8); type: cell-based; details: 72 h
BxPC-3 [6] = assay: Short-exposure killing of cancer cells (WST-8); type: cell-based, human; details: 10 μM
WI-38 = details: 72 h
BxPC-3 [7] = system: BxPC-3
A172 = assay: Cell viability assay (WST-8); type: cell-based; details: 72 h

Chain of human recombinant NRP1 protein (O14786 22-923): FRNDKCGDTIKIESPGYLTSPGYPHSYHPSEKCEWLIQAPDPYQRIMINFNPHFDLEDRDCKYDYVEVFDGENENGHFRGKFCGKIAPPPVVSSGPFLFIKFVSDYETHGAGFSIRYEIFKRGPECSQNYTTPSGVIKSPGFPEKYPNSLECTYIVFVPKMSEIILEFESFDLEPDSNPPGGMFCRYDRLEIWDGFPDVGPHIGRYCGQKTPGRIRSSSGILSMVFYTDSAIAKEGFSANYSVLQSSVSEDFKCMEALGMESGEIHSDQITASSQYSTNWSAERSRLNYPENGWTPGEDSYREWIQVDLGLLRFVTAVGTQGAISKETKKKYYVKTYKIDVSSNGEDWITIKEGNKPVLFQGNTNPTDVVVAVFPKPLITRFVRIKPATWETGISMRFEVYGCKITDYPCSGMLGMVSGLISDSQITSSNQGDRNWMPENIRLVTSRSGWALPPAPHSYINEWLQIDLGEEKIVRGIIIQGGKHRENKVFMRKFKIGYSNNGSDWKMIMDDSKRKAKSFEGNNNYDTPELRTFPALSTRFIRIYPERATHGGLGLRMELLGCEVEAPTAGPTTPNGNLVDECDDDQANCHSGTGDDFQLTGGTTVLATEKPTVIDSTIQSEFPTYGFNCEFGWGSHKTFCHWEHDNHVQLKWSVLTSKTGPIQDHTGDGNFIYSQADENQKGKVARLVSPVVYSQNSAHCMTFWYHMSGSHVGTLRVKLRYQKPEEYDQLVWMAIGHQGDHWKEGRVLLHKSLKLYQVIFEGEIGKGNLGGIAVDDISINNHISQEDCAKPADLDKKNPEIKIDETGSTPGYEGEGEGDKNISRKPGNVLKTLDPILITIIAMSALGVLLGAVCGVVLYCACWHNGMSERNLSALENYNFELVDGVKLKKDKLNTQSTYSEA

**Q.** For “KDLLLHLKKLFREGQFN (IL13R binding peptide) [IL13R-binding peptide]”, which “binding affinity (BIACORE, words)” value [1] is on record?
**A.** Its value is “binding affinity with human recombinant IL13R protein was observed”.

**Q.** “NYQWVPYQGRVPYPR (NRP1 binding peptide) [NRP1-binding peptide]” was tested. Which “binding affinity (BIACORE, words)” value [2] did it give?
**A.** The value was “binding affinity with human recombinant NRP1 protein was observed”.

**Q.** Which “cell-killing effect to H322 compared with lung normal cell line MRC-5” value (H322; 0 to 20 μM) does the source give for “YHWYGYTPQNVIGGGGGRLLRRLLRRLLRK (EGFbuf sequence)” here?
**A.** The value was “cell-killing sensitiveness to cancer cells was high”.

**Q.** What about the “cell-killing effect of chimeric peptide compared with lytic moiety alone” value (H322; H322) of the same sequence?
**A.** Its value is “cell-killing effect was enhanced”.

**Q.** What about the “cell-killing effect compared with buf alone” value (DU145) of the same sequence?
**A.** The value was “cell-killing effect was enhanced”.

**Q.** With “KDLLLHLKKLFREGQFNGGGKLLLKLLKKLLKLLKKK (IL13-lyticL chimeric peptide)” as the sequence, how does the “cell-killing effect compared with LyticL alone” value (U251 [3]; U251, 72 hours) read?
**A.** The value was “cell-killing effect was enhanced”.

**Q.** And the “cell-killing effect compared with LyticL alone” value (HN-12)?
**A.** Its value is “cell-killing effect was enhanced”.

**Q.** And the “contact time that sufficiently induces cell death” value (U251 [4])?
**A.** The value was 10 min.

**Q.** Which IC50 (HEK293T) does the source give for “KQLIRFLKRLDRNGGGKLLLKLLKKLLKLLKKK [IL4-LyticL]” here?
**A.** The IC50 was 7.2 ± 0.7 µM.

**Q.** And the IC50 (U251 [3]; 72 h)?
**A.** The IC50 was 3.7 ± 0.1 µM.

**Q.** And the IC50 [5]?
**A.** Its IC50 is > 20 µM.

**Q.** And the IC50 (KCCT873)?
**A.** Its IC50 is 4.6 ± 0.1 µM.

**Q.** What about the “contact time that sufficiently induces cell death” value (BxPC-3 [6]) of the same sequence?
**A.** Its value is 10 min.

**Q.** And the IC50 (WI-38)?
**A.** Its IC50 is 9.8 ± 0.8 µM.

**Q.** What about the IC50 (MDA-MB-231; 72 h) of the same sequence?
**A.** Its IC50 is 5.6 ± 0.5 µM.

**Q.** And the “cell-killing effect compared with LyticL alone” value (MDA-MB-231; MDA-MB-231, 72 hours)?
**A.** The value was “cell-killing effect was enhanced”.

**Q.** What about the IC50 (BxPC-3 [7]; 72 h) of the same sequence?
**A.** Its IC50 is 3.2 ± 0.4 µM.

**Q.** And the “cell-killing effect compared with LyticL alone” value (BxPC-3 [7]; BxPC-3, 72 hours)?
**A.** Its value is “cell-killing effect was enhanced”.

**Q.** What about the IC50 (A172) of the same sequence?
**A.** The IC50 was 3.8 ± 1.1 µM.
